Data reported in US20260207572A1, “METHODS AND COMPOSITIONS FOR TREATMENT OF SUBJECTS WITH HEPATIC IMPAIRMENTS” (ELEVAR THERAPEUTICS, INC., priority 2022, published 2026).
Like-named read-outs stand apart in the source and are kept apart here.

Tests used:
[1] = Phase 1 study: unbound plasma concentration and fraction unbound (protein binding); type: in vivo, human; conditions: human, plasma, po, 200 mg, 200 mg single oral dose
plasma protein = assay: as above; type: in vivo, human; conditions: 4 h, 200 mg single oral dose; for fraction unbound at 4 h: human, plasma, po, 200 mg, read-out: Fraction Unbound, Arithmetic Mean
[2] = Mild Hepatic Impairment, read-out: Fraction Unbound, Geometric Mean
[3] = Mild Hepatic Impairment, read-out: Fraction Unbound, Median
[4] = Mild Hepatic Impairment, read-out: Unbound Concentration, Arithmetic Mean
[5] = Mild Hepatic Impairment, read-out: Unbound Concentration, Geometric Mean
[6] = Mild Hepatic Impairment, read-out: Unbound Concentration, Median
[7] = Moderate Hepatic Impairment, read-out: Fraction Unbound, Geometric Mean
[8] = Moderate Hepatic Impairment, read-out: Fraction Unbound, Median
[9] = Moderate Hepatic Impairment, read-out: Unbound Concentration, Arithmetic Mean
[10] = Moderate Hepatic Impairment, read-out: Unbound Concentration, Geometric Mean
[11] = Moderate Hepatic Impairment, read-out: Unbound Concentration, Median
[12] = Normal Hepatic Function, read-out: Fraction Unbound, Geometric Mean
[13] = Normal Hepatic Function, read-out: Fraction Unbound, Median
[14] = Normal Hepatic Function, read-out: Unbound Concentration, Arithmetic Mean
[15] = Normal Hepatic Function, read-out: Unbound Concentration, Geometric Mean
[16] = Normal Hepatic Function, read-out: Unbound Concentration, Median

N#CC1(c2ccc(NC(=O)c3cccnc3NCc3ccncc3)cc2)CCCC1 [Rivoceranib, N-[4-(1-cyanocyclopentyl)phenyl]-2-{[(pyridin-4-yl)methyl]amino} pyridine-3-carboxamide]
fraction unbound at 4 h [1, 2]: 0.0232
fraction unbound at 4 h [1, 3]: 0.0232
concentration at 4 h [1, 4]: 3.78 ng/mL
concentration at 4 h [1, 5]: 2.59 ng/mL
concentration at 4 h [1, 6]: 2.37 ng/mL
fraction unbound at 24 h ([1]; Mild Hepatic Impairment, read-out: Fraction Unbound, Arithmetic Mean): 0.0201
fraction unbound at 24 h [1, 2]: 0.0191
fraction unbound at 24 h [1, 3]: 0.0174
concentration at 24 h [1, 4]: 0.63 ng/mL
concentration at 24 h [1, 5]: 0.55 ng/mL
concentration at 24 h [1, 6]: 0.65 ng/mL
fraction unbound at 4 h [1, 7]: 0.0373
fraction unbound at 4 h [1, 8]: 0.0419
concentration at 4 h [1, 9]: 4.73 ng/mL
concentration at 4 h [1, 10]: 4.52 ng/mL
concentration at 4 h [1, 11]: 4.15 ng/mL
fraction unbound at 24 h ([1]; Moderate Hepatic Impairment, read-out: Fraction Unbound, Arithmetic Mean): 0.022
fraction unbound at 24 h [1, 7]: 0.021
fraction unbound at 24 h [1, 8]: 0.021
concentration at 24 h [1, 9]: 1.07 ng/mL
concentration at 24 h [1, 10]: 0.82 ng/mL
concentration at 24 h [1, 11]: 0.82 ng/mL
fraction unbound at 4 h [1, 12]: 0.0243
fraction unbound at 4 h [1, 13]: 0.0212
concentration at 4 h [1, 14]: 4.44 ng/mL
concentration at 4 h [1, 15]: 3.62 ng/mL
concentration at 4 h [1, 16]: 3.76 ng/mL
fraction unbound at 24 h ([1]; Normal Hepatic Function, read-out: Fraction Unbound, Arithmetic Mean): 0.0172
fraction unbound at 24 h [1, 12]: 0.0168
fraction unbound at 24 h [1, 13]: 0.0155
concentration at 24 h [1, 14]: 0.73 ng/mL
concentration at 24 h [1, 15]: 0.68 ng/mL
concentration at 24 h [1, 16]: 0.69 ng/mL
Fraction Unbound, Arithmetic Mean (plasma protein; Mild Hepatic Impairment): 2.39%
fraction unbound at 4 h (plasma protein; Mild Hepatic Impairment): 0.0239 ± 0.00639
fraction unbound at 4 h (plasma protein; Moderate Hepatic Impairment): 0.0425 ± 0.022
fraction unbound at 4 h (plasma protein; Normal Hepatic Function): 0.0265 ± 0.0119
